The values that follow come from ChEMBL document CHEMBL1201862, “PubChem BioAssay data set” (2004).

The structures appear in SMILES notation.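 Cells were grown in 96-well plates and exposed to each compound for 48 hours at five concentrations; endpoints were interpolated linearly between bracketing concentrations, or set to the highest concentration if not reached. Here, GI50 denotes the concentration required for 50% inhibition of growth.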 Active and inactive are the calls of the source. No stated cut-off is given here; in the data, active = GI50 up to about 1.1 µM and inactive = higher.

Some test systems named below: HOP-62; SF-268; OVCAR-4; NCI-H23; M14; HCT-15; COLO 205; SW-620; MDA-MB-435; NCI-H226; HOP-92; ACHN; RPMI-8226; HT-29; LOX IMVI; SK-MEL-2; KM12; SF-539; CAKI-1; RXF 393.
What all share (experiment): NCI tumour cell line growth inhibition, 48 h

Take `O=C1c2c(O)cccc2Cc2cc(CO)cc(O)c21`: the GI50 is 3.01 µM (inactive) in the experiment with HOP-62; 2.05 µM (inactive) in the experiment on SF-268; 1.07 µM (active) in the experiment on OVCAR-4; 1.85 µM (inactive) in the experiment with NCI-H23; 2.31 µM (inactive) with M14; 3.22 µM with HCT-15. For the same molecule, the GI50 with COLO 205 was 1.87 µM (inactive); in the experiment on SW-620 it was 4.06 µM (inactive); in the experiment on MDA-MB-435, 2.67 µM (inactive); in the experiment with NCI-H226, 5.36 µM (inactive); in the experiment with HOP-92 it was 1.61 µM (inactive); in the experiment on ACHN, 2.94 µM (inactive). In addition, the GI50 is 0.743 µM (active) with RPMI-8226 and 3.48 µM (inactive) in the experiment with HT-29.
For the molecule `CCOP(=O)(OCC)/C(C#N)=C/c1nccn1C`, the GI50 is > 100 µM (inactive) with HOP-62; > 100 µM (inactive) in the experiment on SF-268; > 100 µM (inactive) in the experiment with NCI-H23; > 100 µM (inactive) with M14; > 100 µM with HCT-15; > 100 µM (inactive) with LOX IMVI. The GI50 in the experiment on COLO 205, in the experiment on SW-620, in the experiment on MDA-MB-435, in the experiment with SK-MEL-2, in the experiment on NCI-H226 and in the experiment with KM12 was > 100 µM (inactive) throughout. Further, the GI50 in the experiment on HOP-92 was 63 µM (inactive); in the experiment on ACHN it was > 100 µM (inactive); in the experiment with RPMI-8226, > 100 µM (inactive); in the experiment on SF-539, > 100 µM (inactive); with HT-29, > 100 µM (inactive).
`COc1ccc(C2=NOC(N)(c3ccc(OC)cc3)C2)cc1` (stereo unspecified): the GI50 is 64.7 µM (inactive) in the experiment with HOP-62; > 100 µM (inactive) in the experiment on CAKI-1; 86.5 µM (inactive) with OVCAR-4; > 100 µM (inactive) with NCI-H23; > 100 µM (inactive) with M14; > 100 µM with HCT-15. For the same molecule, the GI50 in the experiment on LOX IMVI, with COLO 205, in the experiment on SW-620, in the experiment on MDA-MB-435, in the experiment with SK-MEL-2 and with NCI-H226 was > 100 µM (inactive) in each case. Also, the GI50 with KM12 is 30.8 µM (inactive); in the experiment on HOP-92, > 100 µM (inactive); with ACHN it was > 100 µM (inactive); in the experiment on RPMI-8226, > 100 µM (inactive); in the experiment with SF-539, > 100 µM (inactive); with HT-29, > 100 µM (inactive).
For the molecule `O=C(Nc1ccccc1)c1cc(S(=O)(=O)Nc2n[nH]c(=O)[nH]2)c(SSc2cc(Cl)c(C(=O)Nc3ccccc3)cc2S(=O)(=O)Nc2n[nH]c(=O)[nH]2)cc1Cl`, the GI50 in the experiment on HOP-62, with CAKI-1, in the experiment on SF-268, in the experiment on OVCAR-4, in the experiment with NCI-H23 and in the experiment on M14 was > 100 µM (inactive) each time. In addition, the GI50 in the experiment on HCT-15 is > 100 µM; in the experiment on LOX IMVI, > 100 µM (inactive); in the experiment with COLO 205, > 100 µM (inactive); in the experiment with SW-620 it was > 100 µM (inactive); in the experiment on MDA-MB-435 it was > 100 µM (inactive); with SK-MEL-2 it was > 100 µM (inactive). The GI50 with NCI-H226, in the experiment on KM12, with HOP-92, in the experiment on ACHN, in the experiment on RPMI-8226 and in the experiment on HT-29 was > 100 µM (inactive) throughout.
Turning to `CCN(CC)P(=O)(c1ccc2c(c1)OCCOCCOCCOCCO2)N(CC)CC`, the GI50 in the experiment with HOP-62 was > 100 µM (inactive); with CAKI-1, > 100 µM (inactive); in the experiment with SF-268 it was > 100 µM (inactive); in the experiment with NCI-H23, > 100 µM (inactive); with M14, > 100 µM (inactive); in the experiment on HCT-15, > 100 µM. Further, the GI50 in the experiment with LOX IMVI, with COLO 205, in the experiment on SW-620, with MDA-MB-435, in the experiment on NCI-H226 and with KM12 was > 100 µM (inactive) in each case. The GI50 in the experiment with ACHN, with RPMI-8226 and with SF-539 was > 100 µM (inactive) each time.
With `CC(C)(C)c1cc(COc2cc(COc3ccc(-c4c5c(nc6c4CCc4ccc(-c7c8ccccc8nc8ccccc78)cc4-6)-c4cc(-c6c7ccccc7nc7ccccc67)ccc4CC5)cc3)cc(OCc3cc(C(C)(C)C)cc(C(C)(C)C)c3)c2)cc(C(C)(C)C)c1`, the GI50 in the experiment on HOP-62, in the experiment with CAKI-1, with SF-268, in the experiment on OVCAR-4, with NCI-H23 and in the experiment with M14 was > 100 µM (inactive) throughout. Moreover, the GI50 is > 100 µM in the experiment with HCT-15; > 100 µM (inactive) in the experiment on COLO 205; > 100 µM (inactive) with MDA-MB-435; > 100 µM (inactive) with SK-MEL-2; > 100 µM (inactive) with NCI-H226; > 100 µM (inactive) in the experiment with KM12. The GI50 in the experiment on HOP-92, in the experiment on ACHN and with RPMI-8226 was > 100 µM (inactive) each time.
In the case of `COc1ccc(/C=N/n2c(C)n[nH]c2=O)cc1`, the GI50 in the experiment with HOP-62 was > 100 µM (inactive); in the experiment with CAKI-1 it was > 100 µM (inactive); in the experiment with SF-268, > 100 µM (inactive); in the experiment with OVCAR-4 it was 42.8 µM (inactive); in the experiment with NCI-H23, > 100 µM (inactive); in the experiment with M14, > 100 µM (inactive). The GI50 in the experiment with HCT-15 was > 100 µM; with COLO 205, > 100 µM (inactive); in the experiment with SW-620, > 100 µM (inactive); with MDA-MB-435 it was > 100 µM (inactive); in the experiment on SK-MEL-2 it was > 100 µM (inactive); in the experiment on NCI-H226 it was > 100 µM (inactive). Also, the GI50 with KM12, with ACHN, in the experiment on RPMI-8226, in the experiment on SF-539 and in the experiment with HT-29 was > 100 µM (inactive) each time.
For `O=C1CSC(c2cccc(Cl)c2)N1c1ccc(-n2c(-c3ccccc3)nc3ccccc3c2=O)cc1` (stereo unspecified), the GI50 in the experiment with HOP-62 was > 100 µM (inactive); in the experiment on CAKI-1, 45.3 µM (inactive); with SF-268, 8.07 µM (inactive); in the experiment with OVCAR-4 it was 18.7 µM (inactive); in the experiment on NCI-H23, > 100 µM (inactive); in the experiment on HCT-15, 15.8 µM. In addition, the GI50 was 46.2 µM (inactive) with LOX IMVI; > 100 µM (inactive) with COLO 205; > 100 µM (inactive) with SW-620; 45.8 µM (inactive) in the experiment on MDA-MB-435; > 100 µM (inactive) with SK-MEL-2; 21.3 µM (inactive) with KM12. The GI50 with HOP-92 is 2.69 µM (inactive); in the experiment on ACHN it was 79.3 µM (inactive); in the experiment with RPMI-8226 it was 52.4 µM (inactive); with SF-539 it was 67.1 µM (inactive); with HT-29 it was 97.7 µM (inactive).
Turning to `COc1cc(/C=N\NC(=O)C[N+](C)(C)C)cc(OC)c1OC`, the GI50 in the experiment on HOP-62, in the experiment with CAKI-1, with SF-268, in the experiment on OVCAR-4, in the experiment with NCI-H23 and in the experiment with M14 was > 10 µM (inactive) throughout. Further, the GI50 is > 10 µM with HCT-15; > 10 µM (inactive) with LOX IMVI; > 10 µM (inactive) in the experiment with COLO 205; > 10 µM (inactive) in the experiment on SW-620; > 10 µM (inactive) with MDA-MB-435; > 10 µM (inactive) with KM12. In addition, the GI50 with HOP-92, in the experiment on ACHN, with RPMI-8226, with SF-539 and in the experiment on HT-29 was > 10 µM (inactive) in each case.
With `Cc1ccc(/N=N/C(=NNC(=O)c2ccc(C)cc2)c2ccc(N(C)C)cc2)cc1`, the GI50 is 23 µM (inactive) with CAKI-1; 38.5 µM (inactive) in the experiment with SF-268; 18.5 µM (inactive) in the experiment on OVCAR-4; 24.3 µM (inactive) in the experiment with NCI-H23; 24.8 µM (inactive) in the experiment with M14; 28.7 µM in the experiment on HCT-15. In addition, the GI50 is 33.4 µM (inactive) with LOX IMVI; 12.3 µM (inactive) with COLO 205; 32.2 µM (inactive) in the experiment with SW-620; 16.6 µM (inactive) with MDA-MB-435; 38.3 µM (inactive) in the experiment with SK-MEL-2; 23.8 µM (inactive) with NCI-H226. In addition, the GI50 in the experiment on KM12 is 16.9 µM (inactive); with HOP-92, 28.6 µM (inactive); in the experiment on ACHN, 66.4 µM (inactive); in the experiment on RPMI-8226 it was 22.3 µM (inactive); with SF-539, 43 µM (inactive); in the experiment on HT-29, 31.1 µM (inactive).
In the case of `Cc1cc2nc3c(N)nn(CCCN(C)C)c3nc2cc1C`, the GI50 in the experiment with HOP-62, in the experiment on RXF 393, in the experiment with CAKI-1, in the experiment with SF-268, with OVCAR-4 and in the experiment with NCI-H23 was > 100 µM (inactive) in each case. Also, the GI50 in the experiment on M14 is 30.1 µM (inactive); with HCT-15, > 100 µM; with COLO 205, 55 µM (inactive); in the experiment with SW-620 it was 56.9 µM (inactive); in the experiment on MDA-MB-435, 90.8 µM (inactive); in the experiment on KM12 it was 93.8 µM (inactive). Besides, the GI50 in the experiment with ACHN is 60.3 µM (inactive); with RPMI-8226, > 100 µM (inactive); in the experiment on SF-539, > 100 µM (inactive); with HT-29 it was 38.3 µM (inactive).
As to `CC(C)N(C(C)C)P(OCCC#N)OC1CC(n2cnc3c(=O)[nH]cnc32)OC1COC(=O)NCCCCCCNC(=O)OC(C)(C)c1ccc(-c2ccccc2)cc1` (stereo unspecified), the GI50 was 23.4 µM (inactive) in the experiment with HOP-62; 27.7 µM (inactive) with RXF 393; 39.4 µM (inactive) with CAKI-1; 29.6 µM (inactive) with SF-268; 19.7 µM (inactive) in the experiment with OVCAR-4; 26.1 µM (inactive) in the experiment on NCI-H23. Also, the GI50 is 18.4 µM (inactive) with M14; 22.6 µM with HCT-15; 18.2 µM (inactive) in the experiment with LOX IMVI; 17.4 µM (inactive) in the experiment with COLO 205; 34.1 µM (inactive) in the experiment with SW-620; 30.4 µM (inactive) in the experiment on SK-MEL-2. Besides, the GI50 in the experiment on NCI-H226 was 23.9 µM (inactive); in the experiment on KM12, 18.7 µM (inactive); in the experiment on HOP-92, 35.9 µM (inactive); with ACHN it was 38.7 µM (inactive); in the experiment with RPMI-8226, 25.7 µM (inactive); with SF-539, 24 µM (inactive). Also, in the experiment on HT-29, the GI50 is 43.2 µM (inactive).
